Data taken from patent US8252973B2, “Metabolic engineering of lipid metabolism by improving fatty acid binding and transport” (The Salk Institute for Biological Studies, priority 2006, dated 2012).

Assays:
Type in all cases: binding
At279 (At3g63170) [1] = target: T1, At279 (At3g63170) (Arabidopsis thaliana, UniProt Q9M1X2); test: LC-MS analysis of fatty acids bound to purified At279 protein; conditions: protein over-expressed in and purified from E. coli, ethanol extract, negative-ion ESI
T1 construct: At279 and At287 proteins were purified to homogeneity as described above; His tag (pHIS8 vector) (N, cleaved yes); made in house; host or cells: E. coli BL21 (DE3)
T1 sequence (Q9M1X2 1-279): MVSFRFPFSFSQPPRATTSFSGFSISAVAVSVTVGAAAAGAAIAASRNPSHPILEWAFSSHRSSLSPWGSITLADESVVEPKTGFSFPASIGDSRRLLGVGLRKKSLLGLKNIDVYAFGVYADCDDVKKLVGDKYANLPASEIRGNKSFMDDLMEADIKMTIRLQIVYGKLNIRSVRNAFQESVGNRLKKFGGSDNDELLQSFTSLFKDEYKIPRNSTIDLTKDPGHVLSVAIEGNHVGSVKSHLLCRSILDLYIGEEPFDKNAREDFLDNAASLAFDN
Description: (§1) Cloning, expression and purification of At3g63170 (At279) and At1g53520 (At287): Arabidopsis thaliana At3g63170 (At279) and At1g53520 (At287) genes were subcloned into the pHIS8 Escherichia coli expression vector derived from pET28a (+). For crystallization purpose, constructs of At279 and At287 lacking the transit peptide sequence found at the N-terminal region of the protein (˜50 amino acids) were also created. Transformed E. coli. BL21 (DE3) cells were incubated with shaking at 37° C. in Terrific broth containing 50 μg/ml kanamycin until A([…])=1.0. Protein expression was induced with 0.5 mM isopropyl 1-thio-β-galactopyranoside, and the cultures were incubated with shaking at 22° C. for an additional 6 h. Cells were harvested by centrifugation at 9,000×g and cell pellets re-suspended in lysis buffer (500 mM NaCl, 50 mM Tris-HCl (pH 8.0), 20 mM imidazole, 10% (v/v) glycerol 1% (v/v) Tween 20, 10 mM […]) supplemented with 1 mg/ml lysozyme. Following sonication and centrifugation of the lysed cell debris at 100,000×g, the supernatant was passed over a Ni2+-NTA column (Qiagen, Valencia, Calif.) equilibrated in lysis buffer, washed with 10 bed volumes of wash buffer (500 mM NaCl, 50 mM Tris-HCl (pH 8.0), 20 mM imidazole, 10 mM β-mercaptoethanol), and the His-tagged protein eluted with 10 bed volumes of elution buffer (500 mM NaCl, 50 mM Tris-HCl (pH 8.0), 250 mM imidazole, 10 mM β-mercaptoethanol). The N-terminal His tag was cleaved by thrombin digestion during a 24-h dialysis against digestion buffer (500 mM NaCl, 50 mM Tris (pH 8.0), 10 mM β-mercaptoethanol) at 4° C. Cleaved protein was isolated by running the dialyzed sample over another Ni2+-NTA column equilibrated in digestion buffer to remove the His tag and uncleaved protein, followed by a benzamidine-Sepharose column to remove thrombin. A Superdex S75 gel filtration column (Amersham Biosciences) equilibrated in gel filtration buffer (500 mM NaCl, 25 mM HEPES (pH 7.5), 2 mM dithiothreitol (DTT) was utilized to isolate homogeneous At279 and A287. Peak fractions were collected and dialyzed against crystallization storage buffer (100 mM NaCl, 25 mM HEPES (pH 7.5), 2 mM DTT). The resulting samples were subjected to SDS-PAGE and judged to be >95% pure based upon Coomassie staining. At279 and At287 were subsequently concentrated to 10-15 mg/ml and stored at −80° C.
(§2) At279 and At287 proteins were purified to homogeneity as described above. Ice-cold HPLC grade ethanol (600 μl) was added to the proteins (150 μl protein sample at 10 mg/ml previously dialyzed against 20 mM ammonium bicarbonate). The samples were vortexed and incubated at −20° C. for 3 days. For LC-MS analysis, the samples were centrifuged, and the supernatant containing the FAs was removed and placed in a new glass vial. The solvent was evaporated at 25° C., and the remaining residue resuspended in 200 μl propanol. The extracts were analyzed by liquid chromatography (LC) using an Agilent 1100 HPLC employing a Gemini reversed-phase C18 column (4.6×150 mm, 5 μ) running at a flow rate of 1 ml/min, and coupled to an electrospray ionization (ESI) XCT ion trap mass spectrometer (Agilent) operated in the negative-ion mode employing a continual introduction of a 20 mM ammonium acetate solution flowing at 100 μl/min. A linear gradient of acetonitrile (30-100% v/v) in 25 mM ammonium bicarbonate, pH 8, was used. The negative ion-ESI mass spectra of FA standards were as follows: Laurie acid (C12:0) (m/z)=198.7 ([M-H]-), Myristic acid (C14:0) (m/z)=226.9 ([M-H]-), Palmitic acid (C16:0)/m/z)=254.9 ([M-H]-) and Stearic acid (C18:0) (m/z)=282.9 ([M-H]-).

At287 (At1g53520) = target: T2, At287 (At1g53520) (Arabidopsis thaliana, UniProt Q9C8L2); test: LC-MS analysis of fatty acids bound to purified At287 protein; conditions: protein over-expressed in and purified from E. coli, ethanol extract, negative-ion ESI
T2 construct: At279 and At287 proteins were purified to homogeneity as described above; His tag (pHIS8 vector) (N, cleaved yes); made in house; host or cells: E. coli BL21 (DE3)
T2 sequence (Q9C8L2 73-287): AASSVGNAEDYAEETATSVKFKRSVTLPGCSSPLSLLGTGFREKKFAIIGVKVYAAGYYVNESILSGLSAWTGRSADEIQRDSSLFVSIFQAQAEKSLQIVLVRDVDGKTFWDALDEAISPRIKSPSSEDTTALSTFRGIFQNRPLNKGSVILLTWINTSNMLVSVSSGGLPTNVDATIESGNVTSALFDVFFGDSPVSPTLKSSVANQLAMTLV
Description: as §1, §2

At279 (At3g63170) [2] = target: T3, At279 (At3g63170) (Arabidopsis thaliana, UniProt Q9M1X2); test: X-ray crystal structure of At279 with bound small molecule; conditions: ligand likely derived from E. coli, carboxylic acid sequestered by Arg 103 and Tyr 116
T3 construct: Crystals of the heterologously expressed At279 C-terminal construct (residues 77 to 279) were obtained by vapor diffusion; His tag (pHIS8 vector) (N, cleaved yes); made in house; host or cells: E. coli BL21 (DE3)
T3 sequence (Q9M1X2 77-279): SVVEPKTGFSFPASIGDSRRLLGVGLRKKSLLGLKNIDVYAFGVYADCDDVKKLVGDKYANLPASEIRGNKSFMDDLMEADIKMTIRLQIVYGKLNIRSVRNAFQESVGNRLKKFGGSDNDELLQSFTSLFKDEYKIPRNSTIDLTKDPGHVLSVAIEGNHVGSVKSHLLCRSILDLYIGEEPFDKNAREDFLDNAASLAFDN
Description: Crystals of the heterologously expressed At279 C-terminal construct (residues 77 to 279) were obtained by vapor diffusion in 2 μl hanging drops incubated at 4° C. and consisting of a 1:1 mixture of protein and crystallization buffer. The crystallization buffer contained 19% (w/v) PEG 3350, 0.3 M KCl, 2 mM DTT and 100 mM TAPS buffer at pH 8.5. Prior to freezing in liquid nitrogen, native crystals were passed through a cryogenic buffer identical to the crystallization buffer except for the use of 21% (w/v) PEG 3350 and the inclusion of 20% (v/v) ethylene glycol. For heavy atom derivatization, native At279 crystals were soaked overnight in crystallization buffer differing from the crystallization solution due to an increased PEG 3350 concentration (21% (w/v)) and the inclusion of 1 mM K2PtCl4 prior to cryogenic freezing as before. A multi-wavelength anomalous dispersion (MAD) data set was collected at the Pt edge on a K2PtCl4 derivative crystal at the Stanford Synchrotron Radiation Laboratory (SSRL) on beam line BL1-5. Data were processed with HKL2000 and reduced to a unique set of indexed intensities to a resolution of 2.6 Å. A single-wavelength native data set was collected at SSRL and processed with HXL2000 to a resolution of 1.9 Å. At279 crystals belong to the P2(1)2(1)2(1) space group, with average unit cell dimensions of a=56.44 Å, b=56.96 Å, c=140.37 Å, α=β=γ=90°. […]

## CCCCCCCCCCCCCCCC(=O)O [Palmitic acid]
At279 (At3g63170) [1]
  fatty acid bound to purified At279 (presence in protein extract by LC-MS): bind
At279 (At3g63170) [1]; listed as C16:0
  fatty acid bound to purified At279 (presence in protein extract by LC-MS): clearly showed the presence
At287 (At1g53520)
  fatty acid bound to purified At287 (presence in protein extract by LC-MS): bind
At287 (At1g53520); listed as C16:0
  fatty acid bound to purified At287 (presence in protein extract by LC-MS): clearly showed the presence

## CCCCCCCCCCCCCC(=O)O [Myristic acid]
At279 (At3g63170) [1]
  fatty acid bound to purified At279 (presence in protein extract by LC-MS): bind
At279 (At3g63170) [1]; listed as C14:0
  fatty acid bound to purified At279 (presence in protein extract by LC-MS): clearly showed the presence
At287 (At1g53520)
  fatty acid bound to purified At287 (presence in protein extract by LC-MS): bind
At287 (At1g53520); listed as C14:0
  fatty acid bound to purified At287 (presence in protein extract by LC-MS): clearly showed the presence

## CCCCCCCCCCCCCCCCCC(=O)O [Stearic acid]
At279 (At3g63170) [1]
  fatty acid bound to purified At279 (presence in protein extract by LC-MS): bind
At279 (At3g63170) [1]; listed as C18:0
  fatty acid bound to purified At279 (presence in protein extract by LC-MS): clearly showed the presence
At287 (At1g53520)
  fatty acid bound to purified At287 (presence in protein extract by LC-MS): bind
At287 (At1g53520); listed as C18:0
  fatty acid bound to purified At287 (presence in protein extract by LC-MS): clearly showed the presence

## CCCCCCCCCCCC(=O)O [Laurie acid, lauric acid]
At279 (At3g63170) [1]
  fatty acid bound to purified At279 (presence in protein extract by LC-MS): bind
At279 (At3g63170) [1]; listed as C12:0
  fatty acid bound to purified At279 (presence in protein extract by LC-MS): clearly showed the presence
At287 (At1g53520)
  fatty acid bound to purified At287 (presence in protein extract by LC-MS): bind
At287 (At1g53520); listed as C12:0
  fatty acid bound to purified At287 (presence in protein extract by LC-MS): clearly showed the presence
At279 (At3g63170) [2]
  small molecule bound in At279 crystal structure: sequestered in a well-organized binding pocket
At279 (At3g63170) [2]; listed as lauric acid
  small molecule bound in At279 crystal structure: bound in a cavity partially overlapping with the originally identified CHI active site
